Publication PMC8396812, “Aphid Odorant-Binding Protein 9 Is Narrowly Tuned to Linear Alcohols and Aldehydes of Sixteen Carbon Atoms” (Insects, 2021)

target: T1, ApisOBP9 (Acyrthosiphon pisum, UniProt A0A8R1TD77); assay: biochemical; parameters: competitive displacement of 1-NPN fluorescence from recombinant OBP9, Kd calculated from IC50; settings: read-out: ApisOBP9-WT
T1 construct: pET30, E. coli, N-terminal His-tag removed with enterokinase
T1 sequence (A0A8R1TD77 25-165): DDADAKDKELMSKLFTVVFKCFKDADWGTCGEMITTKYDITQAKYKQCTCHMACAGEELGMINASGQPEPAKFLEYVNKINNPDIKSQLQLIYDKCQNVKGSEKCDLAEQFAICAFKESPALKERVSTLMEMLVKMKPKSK
Method: Affinity constants were evaluated by the competitive fluorescent method, using a PerkinElmer FL 6500 spectrofluorometer in a right-angle configuration at room temperature and quartz cuvettes with a 1 cm path. The fluorescent probe N-phenyl-1-naphthylamine (1-NPN) was excited at 337 nm, and emission spectra were recorded between 380 and 450 nm. Binding of 1-NPN was evaluated by adding aliquots of a 1 mM methanol solution to reach final concentrations of 2–16 μM, to a 2 μM solution of the protein in 50 mM Tris-HCl buffer, pH 7.4. Intensity values were recorded at the peak maximum, around 412 nm. The dissociation constant of the complex protein/1-NPN was calculated using Prism software (https://www.graphpad.com/scientific-software/prism/, accessed on 10 February 2021). The affinities of other ligands were evaluated in competitive binding assays by adding aliquots of 1 mM methanol solutions of each ligand to final concentration values of 2 to 16 μM, to a mixture of the protein and 1-NPN, both at the concentration of 2 μM in 50 mM Tris-HCl buffer, pH 7.4. Dissociation constants of ligands were calculated from the corresponding [IC]50 values (the concentration of each ligand halving the initial value of fluorescence), using the equation:KD = [IC]50/1 + [1-NPN]/K1-NPN where [1-NPN] is the concentration of free 1-NPN, and K1-NPN the dissociation constant of the complex protein/1-NPN. All results of the binding experiments are reported in Figure 2 and in Supplementary Figures S1–S4, including those performed on a mutant (Lys37Leu), designed on the results obtained with the wild-type ApisOBP9. First, we measured the affinity of the protein to the fluorescent probe N-phenyl-1-naphthylamine (1-NPN), the most widely used with insect OBPs.

In order of rising Kd:
1. CCCC/C=C\CCCCCCCCCC=O [Z11-hexadecenal]  1140 nM
2. CCCC/C=C\CCCCCCCCCCO [Z11-1-hexadecenol]  1370 nM
3. CCCC/C=C\CCCCCCOC(C)=O [(Z)-7-Dodecenyl acetate]  1380 nM
4. CCCCCC/C=C\CCCCCCCC=O [Z9-hexadecenal]  1440 nM
5. CCCCCCCCCCCCCCCCO [1-hexadecanol]  1900 nM
6. CCCC/C=C\CCCCCCCCCCCC=O [(Z)-13-Octadecenal]  2280 nM
7. CCCCCCCCCCCCCCO [1-Tetradecanol]  3410 nM
8. CCCCCCCCCCCCO [1-Dodecanol]  3790 nM
9. CCCC/C=C\CCCCCCCC=O [(Z)-9-Tetradecenal]  5310 nM
10. COc1cc(/C=C/C=O)ccc1O [coniferyl aldehyde]  7890 nM
11. CC1=C(C=O)C(C)(C)CC=C1 [safranal]  11400 nM
12. CCCCCCCCCC(=O)O [Decanoic acid]  14500 nM

target: T1, ApisOBP9; assay: competitive displacement of 1-NPN fluorescence; type: binding; settings: 2 μM protein, 2 μM 1-NPN, 50 mM Tris-HCl pH 7.4, room temperature

With `C=CC(=C)CC/C=C(\C)CCC=C(C)C` [(E)-β-farnesene] the KD was “in our hands, ApisOBP9 showed some affinity to EBF”.
`CC1=C(C=O)C(C)(C)CC=C1` [safranal] was tested, and the KD was “with only coniferyl aldehyde and safranal showing moderate affinities”.
In the case of `COc1cc(/C=C/C=O)ccc1O` [coniferyl aldehyde], the KD is reported as “with only coniferyl aldehyde and safranal showing moderate affinities”.
